# Values quoted from earlier work in patent US20240325432A1, “COMPOSITION AND METHODS OF TREATMENT USING TRANSDERMAL SUPPLEMENTATION” (Xygenyx Inc., priority 2023, published 2024).
# How the values were obtained:
# [1] = as penetration enhancer
# [2] = tested on: wide dynamic range neurons in the ventroposterolateral nucleus of the thalamus; conditions: believed
# [3] = compared to α-tocopherol = 1.0
# [4] = tested on: F2-isoprostane; conditions: 1600-3200 IU/day
# [5] = tested on: rheumatoid arthritis; conditions: arthritic subjects
# [6] = even when dietary intake occurs in equal portions
# [7] = tested on: markers of inflammation in the blood; conditions: individuals with metabolic syndrome
# [8] = in vivo
compound,measurement,setting,value
CC(C)[C@@H]1CC[C@@H](C)C[C@H]1O [Menthol],increase of transdermal drug uptake (factor),[1],≥ 10
"CCCCCc1cc(O)c2c(c1)OC(C)(C)C1CCC(C)=CC21 (stereo not drawn) [THC, Δ-9-tetrahydrocannabinol]",analgesic power relative to morphine,[2],ten times more powerful than morphine
"CC12CCC(CC1)C(C)(C)O2 [eucalyptol, 1,8-epoxy-p-menthane]",increase of transdermal drug uptake (factor),[1],more than 10
Cc1c(C)c2c(c(C)c1O)CC[C@@](C)(CCC[C@H](C)CCC[C@H](C)CCCC(C)C)O2 [α-tocopherol],relative biological activity,[3],1.0
same,reduction in the development of age-related cataracts,400-500 IU in combination with 10-20 mg β-carotene and 400-500 mg vitamin C,23%
same,reduction of risk of coronary disease,"dietary supplementation, doses up to 400 IU/day",up to 34%
same,reduction of risk of developing neurodegenerative diseases (Alzheimer's Syndrome or dementia),"dietary supplementation, doses up to 400 IU/day, controlled trials",≤ 24%
same,blood plasma concentration of F2-isoprostane,[4],significantly lower
C=C1CC/C=C(\C)CC[C@@H]2[C@@H]1CC2(C)C [β-caryophyllene],swelling of joints and lymph nodes,[5],reduced swelling of joints and lymph nodes
Cc1cc(O)c(C)c2c1O[C@](C)(CCC[C@H](C)CCC[C@H](C)CCCC(C)C)CC2 [β-tocopherol],relative biological activity,[3],0.5
Cc1c(O)cc2c(c1C)O[C@](C)(CCC[C@H](C)CCC[C@H](C)CCCC(C)C)CC2 [γ-tocopherol],concentration in vivo relative to α-tocopherol,[6],roughly 10%
same,relative biological activity,[3],0.1
Cc1cc(O)cc2c1O[C@](C)(CCC[C@H](C)CCC[C@H](C)CCCC(C)C)CC2 [δ-tocopherol],markers of inflammation in the blood,[7],reduced markers of inflammation
same,relative biological activity,[3],0.03
HGH: hormone comprising a peptide chain that is synthesized in the pituitary gland,biological half-life,[8],10-20 minutes
